Results published in patent publication US11090305B2, “Methods and compositions to reduce oxidative stress” (University of Massachusetts, priority 2009, dated 2021).

Columns and labels:
Notch1 = Notch1 expression in HSCs and lymphoid progenitors (Example 5); assay type: in vivo, mouse
Description: Cells were stained with monoclonal antibodies conjugated to various fluoroprobes. These antibodies included: Notch1, cKit (2B8), Sca-1 (E13-161.7), CD4 (L3T4), CD8 (53-6.72), CD90.1, CD25, CD44, TCRβ, NK1.1, γδTCR, CD45.1, CD45.2. The lineage cocktail consisted of CD4, CD8, B220 (RA3-6B2), TER-119, Mac-1 (MI/70), and Gr-1 (RB6-8C5). All antibodies were purchased from BD Bioscience (San Diego, Calif.). FACS analysis was carried out on a FACS Diva.
The Notch family is an evolutionarily conserved system of receptors and ligands that play a fundamental role in regulating cell-fate decision in many types of stem and progenitor cells, including HSCs. Notch1 plays a critical role in lymphocyte differentiation, wherein expression of Notch1 favors T cell differentiation. To clarify the effects of hypercholesterolemia on the expression Notch family, the expression of Notch family was screened in HSCs isolated from WT and ApoE^−/− mice. The percentage of HSCs expressing of Notch1 was higher in hypercholesterolemic than WT mice, whereas no differences in Notch2, Notch4, or Delta-like-1 were noted among groups (FIG. 47A). FIGS. 47A-47D show notch 1 expression is greater in HSCs from hypercholesterolemic mice. […] (B) Within the HSC population, a higher percentage of long term-HSCs expressed Notch1 than did short term-HSCs. This difference was evident in both WT and ApoE^−/− mice, although the percentage of short term-HSCs expressing Notch1 was twofold higher in ApoE^−/− than WT mice. […] (D) Treatment of ApoE^−/−, but not WT mice with SB203580 reduced the percentage of HSCs expressing Notch1. m±sd, n=5, *p<0.05 vs. WT, †p<0.05 vs. ApoE or HCD, p<0.05 vs. long-term HSCs.

[1] = system: p19^Arf, p21^Waf1, and p27^Kip1; test: RT-PCR expression of p19^Arf, p21^Waf1, p27^Kip1 in HSCs; assay type: in vivo, mouse
Description: The expression of p15^Ink4b, p16^Ink4a, p18^Ink4c, p19^ARF, P21^Waf1, and p27^Kip1 was determined using RT-PCR, a more sensitive and quantitative assay, in ApoE^−/− and WT HSCs.

HSCs = test: Competitive HSC transplantation, bone marrow repopulation; assay type: in vivo, mouse; conditions: for outcome of competitive transplant with CD45.2 WT HSCs: WT donor mice treated 2 weeks before harvest
Description: HSC were purified from freshly harvested bone marrow mononuclear cells as c-Kit^+Sca-1^+CD90.1^lowLin^− by FACS sorting. Recipient mice were C57BL/6 (WT) on standard chow. Recipients underwent lethal irradiation (1100 Rads delivered in 2 doses 3 hr apart). Immediately after the 2nd irradiation, recipients were anesthetized (2% isoflurane) and 10^6 HSC/0.1 ml sterile PBS were transplanted via retro-orbital injection. Mice were followed for 12 weeks before study or administration of AOM.
The functional consequence of this loss of quiescence by competitive transplantation was investigated next, insofar as the presence of quiescent HSC are critical for successful bone marrow reconstitution. HSCs from CD45.2 ApoE^−/− or HCD mice were mixed 1:1 with CD45.1 WT HSCs and then transplanted into lethally irradiated CD45.1 WT recipients.
Activation of p38 MAPK reduces HSC quiescence in Atm^−/− mice. To evaluate this phenomena in hypercholesterolemic mice, ApoE^−/− and WT mice were treated with the selective p38 MAPK inhibitor SB203580 or the MEK 1 inhibitor PD98059 for 2 weeks prior to harvest of HSCs for transplant. CD45.2 ApoE^−/− or WT HSCs with mixed 1:1 with CD45.1 WT HSCs and transplanted into lethally irradiated CD45.1 recipient mice.

eNOS = eNOS expression in gastrocnemius muscle by western blotting (Example 2); assay type: in vivo, rat; conditions: dietary supplements from 7 days before ischemia; 14 days after induction of ischemia
Description: (§1) Rats were sacrificed 14 days after induction of ischemia for measurement of gastrocnemius muscle eNOS and nitrotyrosine expression. […] Samples were homogenized in liquid nitrogen and transferred to NP-40 lysis buffer, comprised of 50 mM HEPES (pH 7.5), 150 mM NaCl, 10% glycerol, 1.5 mM MgCl2, 1 mM EDTA, 100 mM NaF, 1% NP 40, 1 mM PMSF, and […] aprotinin. The lysates were centrifuged, the supernatant recovered, and the protein concentration determined (Pierce Biotechnology, Rockford, Ill.). […] Membranes were incubated overnight at 4° C. with mouse monoclonal anti-nitrotyrosine (Cayman Chemical Co., Ann Arbor, Mich., 1:1000) or mouse monoclonal anti-eNOS (BD Transduction Laboratories, San Diego, Calif., 1:1000) and then incubated for 2 h with horseradish peroxidase-conjugated anti-mouse IgG antibody (Pierce Biotechnology, 1:5000). Immunoreactive bands were visualized using the enhanced chemiluminescence system (Amersham, Arlington Heights, Ill.). Band density was quantitated by standard densitometry and the intensity of the band of interest expressed as a function of the α-tubulin band.

nitrotyrosine = test: Nitrotyrosine accumulation in gastrocnemius muscle by western blotting (Example 2); assay type: in vivo, rat; conditions: 14 days after induction of ischemia
Description: as §1

[2] = system: Ca^2+-independent NOS (iNOS); test: Ca^2+-independent NOS activity in gastrocnemius muscle (Example 2); assay type: in vivo, rat; conditions: 14 days after induction of ischemia
Description: (§2) Rats were sacrificed 14 days after induction of ischemia for determination of gastrocnemius muscle NOS activity. […] Muscles were homogenized in ice-cold buffer (250 mM Tris-HCl, pH 7.4, 10 mM EDTA, 10 mM EGTA), centrifuged, and the protein in the supernatant adjusted to 5 μg/ml. Samples were incubated in 10 mM NADPH, 1 μCi/μl ^14C-Arg, 6 mM CaCl2, 50 mM Tris.HCl (pH 7.4), 6 μM BH4, 2 uM FAD, and 2 μM FMN for 30 minutes at 37° C. The reaction was stopped with 400 μl of 50 mM Hepes, pH 5.5, 5 mM EDTA. Identical samples were prepared without CaCl2 and all reactions were performed in duplicate. The radioactivity of the sample eluate was measured and expressed as CPM/μg protein. The Ca^2+-dependent NOS activity, which corresponds to the sum of the endothelial and neural NOS isoforms, was calculated by subtracting the NOS activity measured in the absence of CaCl2) from the NOS activity measured in the presence of CaCl2). The Ca^2+-independent NOS activity corresponds to inflammatory isoform of NOS, or iNOS.

Ca^2+-dependent NOS [3] = test: Ca^2+-dependent NOS activity in gastrocnemius muscle (Example 2); assay type: in vivo, rat; conditions: 14 days after induction of ischemia
Description: as §2

Ca^2+-dependent NOS [4] = test: Ca^2+-dependent NOS activity in gastrocnemius muscle, hindlimb ischemia (Example 1); assay type: in vivo, rat; conditions: 4 days after AdeNOS or PBS (14 days after induction of ischemia)
Description: A portion of the gastrocnemius muscle harvested on day 4 after AdeNOS or saline administration (14 days after induction of ischemia) was snap frozen in liquid N2 for subsequent analysis of Ca^2+-dependent NOS activity (EMD Chemicals, Gibbstown, N.J.). 50 μg of muscle protein homogenate was incubated in 10 mM NADPH, 1 μCi/μl ^14C-arginine, 6 mM CaCl2, 50 mM Tris.HCl (pH 7.4), 6 μM BH4, 2 μM FAD, and 2 μM FMN for 30 minutes at 37° C. The reaction was stopped with 400 μl of 50 mM Hepes (pH 5.5) and 5 mM EDTA. Identical samples were prepared without CaCl2 and all reactions were performed in duplicate. The radioactivity of the sample eluate was measured in a liquid scintillation counter. Enzyme activity was expressed as […] per minute per microgram protein (CPM/min/ug). The Ca^2+-NOS activity was calculated by subtracting the NOS activity measured without calcium from the total activity measured in the presence of calcium.

[5] = system: ischemic hindlimb of rats; test: Evaluation of muscle necrosis (NBT staining, H&E, muscle weights) (Example 1); assay type: in vivo, rat; conditions: 7 days after AdeNOS or PBS (17 days after induction of ischemia)
Description: Muscle necrosis was determined using cut sections of tibialis anterior and gastrocnemius muscle. Muscle samples were cut transversely into 3 pieces (cuts made in 2 mm increment); two sections were stained with nitroblue tetrazolium (NBT). These sections were incubated in phosphate buffered saline (pH 7.4) containing 0.033% NBT (Fischer Biotech, Austin, Tex.) and 0.133% NADH (Roche Diagnostics, Indianapolis, Ind.) for 10 min, and then fixed in 4% paraformaldehyde for 24 hours. The areas of viable (stained) and non-viable (unstained) tissue were quantified using Image Pro software (Media Cybernetics, Bethesda, Md.) and the average taken for each rat. The third cut muscle section was used for H&E staining.

[6] = system: ischemic hindlimb of rats; test: Laser Doppler perfusion imaging of hindlimb blood flow (Example 1); assay type: in vivo, rat; conditions: days after AdeNOS or PBS administration
Description: Hindlimb blood flow was determined by means of laser Doppler imaging (Moor Instruments, Ltd., Devon, United Kingdom). Flow was measured preoperatively, immediately after arterial excision, immediately before AdeNOS or saline administration, and on days 4, 7, 21, and 30 thereafter. Scans were obtained during inhalation of 1% isoflurane while core body temperature was maintained between 36.8-37.2° C. by means of a heating element driven by a rectal temperature probe. Scans were repeated three times and the average for each rat determined. Data were expressed as the ratio of ischemic:non-ischemic hindlimb.

wt MSC [7] = test: Response of wt MSC to endogenic medium (CD31 staining); assay type: cell-based, mouse; conditions: WT MSCs, increased concentrations
Description: (§3) Adipocytes were identified by Oil Red O staining. m±sd, n=4, *p<0.05 vs control. […] Endothelial cells were identified by CD31 staining. m±sd, n=4, *p<0.05 vs control, #p<0.05 vs 5 nM.

wt MSC [8] = test: Response of wt MSC to adipogenic medium (Oil Red O staining); assay type: cell-based, mouse; conditions: WT MSCs, increased concentrations
Description: as §3

wt MSC [9] = test: Nox 4 expression and DCF staining in wt MSC after insulin treatment; assay type: cell-based, mouse; conditions: WT MSCs, increased concentrations
Description: as §3

wt MSC [10] = test: Basal PPARγ, adiponectin, eNOS and p-eNOS expression in wt MSC; assay type: cell-based, mouse; conditions: WT MSCs, increased concentrations
Description: as §3

PAD patients = conditions: acute or short term supplementation, literature; cited from earlier work
[11] = ApoE^−/− mice, in vivo treatment

With `C[S+]([O-])c1ccc(-c2nc(-c3ccncc3)c(-c3ccc(F)cc3)[nH]2)cc1` (stereo not shown) [SB203580] the “percentage of HSCs expressing Notch1” value (Notch1; WT mice) was “did not affect the WT group”, the “percentage of HSCs expressing Notch1” value (Notch1; hypercholesterolemic mice (ApoE^−/−, HCD), in vivo treatment) was “significantly reduced the percentage of ApoE^−/− HSCs expressing Notch1” and the “HSC expression of p19^Arf, p21^Waf1, and p27^Kip1” value (shortened to “HSC expression of p19^Arf”) [1, 11] was “significantly reduced HSC expression of p19^Arf, p21^Waf1, and p27^Kip1”. The “HSC expression of p19^Arf” value ([1]; WT HSCs) was “neither drug affected expression of these proteins in WT HSCs”, the “percentage of CD45.2^+ bone marrow mononuclear cells 12 weeks after competitive transplantation” value (HSCs; ApoE^−/− donor mice treated before HSC harvest (NAC 4 weeks; SB203580, PD98059 2 weeks)) was “significantly improved the efficacy of ApoE^−/− HSCs in the competitive transplant paradigm” and the “outcome of competitive transplant with CD45.2 WT HSCs” value (HSCs) was “Neither drug affected the outcome”.

In the case of L-arginine α-ketoglutarate, the “eNOS expression in the ischemic gastrocnemius muscle” value (eNOS) is reported as “significantly greater than that of rats fed normal chow”, the “nitrotyrosine level in the ischemic gastrocnemius muscle” value (nitrotyrosine) is reported as “significantly less than the level noted in rats fed normal chow” and the “Ca^2+-independent NOS activity in the ischemic gastrocnemius muscle” value [2] is reported as “statistically similar to the normal chow group”. For the same molecule, the “Ca^2+-dependent NOS activity in the ischemic gastrocnemius muscle” value (Ca^2+-dependent NOS [3]) was “greater than that of rats fed normal chow”.

In the case of `C[C@H](O)[C@H](O)[C@H]1CNc2nc(N)[nH]c(=O)c2N1` [BH4, tetrahydrobiopterin], the “Ca^2+-dependent NOS activity in gastrocnemius muscle” value (Ca^2+-dependent NOS [4]) is reported as “no effect”, the “extent of muscle necrosis (NBT staining)” value [5] is reported as “no effect” and the “hindlimb blood flow recovery” value [6] is reported as “no effect”.

For insulin: insulin treatment of wt MSC, the “differentiation towards endothelial cells” value (wt MSC [7]) was “decreased differentiation towards endothelial cells”, the differentiation towards adipocytes (wt MSC [8]) was “increased differentiation towards adipocytes” and the “Nox 4 expression and oxidative stress” value (wt MSC [9]) was “increased Nox 4 expression and oxidative stress”. For the same molecule, the PPARgamma expression (wt MSC [10]) was “increased PPARgamma” and the p-eNOS expression (wt MSC [10]) was “decreased p-eNOS expression”.

With `COc1cccc(-c2cc(=O)c3ccccc3o2)c1N` [PD98059] the “HSC expression of p19^Arf” value [1, 11] was “had no effect”, the “HSC expression of p19^Arf” value ([1]; WT HSCs) was “neither drug affected expression of these proteins in WT HSCs” and the “outcome of competitive transplant with CD45.2 WT HSCs” value (HSCs) was “Neither drug affected the outcome”.

In the case of `O=C1O[C@H]([C@@H](O)CO)C(O)=C1O` [vitamin C, L-ascorbic acid], the PAD symptoms (PAD patients) is given as “reduce PAD symptoms”.
